Among the data in patent US9247741B2, “Use of macrocyclic picolinamides as fungicides” (DOW AGROSCIENCES LLC, priority 2013, dated 2016) are melting point and pest or weed control values, retold here.

Read-outs that look alike come from different tables or passages of the source. Some results are limits rather than exact numbers.

Data set [1] has as its system Puccinia triticina. Briefly: Wheat brown rust (PUCCRT) disease control on wheat seedlings. Type of data set: in vivo. Particulars: for pest or weed control at 100 ppm: 100 ppm (high volume); for pest or weed control at 121.5 g/ha: 121.5 g/H (low volume track spray). Here is the method: Technical grades of materials were dissolved in acetone, which were then mixed with nine volumes of water containing 110 ppm Triton X-100. The fungicide solutions were applied onto wheat seedlings using an automated booth sprayer to run-off. All sprayed plants were allowed to air dry prior to further handling. All fungicides were evaluated using the aforementioned method for their activity vs. all target diseases. Wheat leaf blotch and brown rust activity were also evaluated using track spray applications, in which case the fungicides were formulated as EC formulations, containing 0.1% Trycol 5941 in the spray solutions. Wheat plants (variety Yuma) were grown from seed in a greenhouse in 50% mineral soil/50% soil-less Metro mix until the first leaf was fully emerged, with 7-10 seedlings per pot. These plants were inoculated with an aqueous spore suspension of Septoria tritici either prior to or after fungicide treatments. After inoculation the plants were kept in 100% relative humidity (one day in a dark dew chamber followed by two to three days in a lighted dew chamber at 20° C.) to permit spores to germinate and infect the leaf. The plants were then transferred to a greenhouse set at 20° C. for disease to develop. When disease symptoms were fully expressed on the l^st leaves of untreated plants, infection levels were assessed on a scale of 0 to 100 percent disease severity. Percent disease control was calculated using the ratio of disease severity on treated plants relative to untreated plants. Evaluation of Fungicidal Activity: Wheat Brown Rust (Puccinia triticina; Synonym: Puccinia recondite f sp. tritici; Bayer code PUCCRT) Wheat plants (variety Yuma) were grown from seed in a greenhouse in 50% mineral soil/50% soil-less Metro mix until the first leaf was fully emerged, with 7-10 seedlings per pot. These plants were inoculated with an aqueous spore suspension of Puccinia triticina either prior to or after fungicide treatments. After inoculation the plants were kept in a dark dew room at 22° C. with 100% relative humidity overnight to permit spores to germinate and infect the leaf. The plants were then transferred to a greenhouse set at 24° C. for disease to develop. Fungicide formulation, application and disease assessment followed the procedures as described in the Example A.

In data set [2] the test system is Mycosphaerella graminicola; Anamorph: Septoria tritici. Briefly: Leaf blotch of wheat (SEPTTR) disease control on wheat seedlings. Type of data set: in vivo. The note with it: Zymoseptoria tritici; for pest or weed control at 121.5 g/ha: 121.5 g/H (low volume track spray). Here is the method: Evaluation of Fungicidal Activity: Leaf Blotch of Wheat (Mycosphaerella graminicola; Anamorph: Septoria tritici; Bayer Code […]) Technical grades of materials were dissolved in acetone, which were then mixed with nine volumes of water containing 110 ppm Triton X-100. The fungicide solutions were applied onto wheat seedlings using an automated booth sprayer to run-off. All sprayed plants were allowed to air dry prior to further handling. All fungicides were evaluated using the aforementioned method for their activity vs. all target diseases. Wheat leaf blotch and brown rust activity were also evaluated using track spray applications, in which case the fungicides were formulated as EC formulations, containing 0.1% Trycol 5941 in the spray solutions. Wheat plants (variety Yuma) were grown from seed in a greenhouse in 50% mineral soil/50% soil-less Metro mix until the first leaf was fully emerged, with 7-10 seedlings per pot. These plants were inoculated with an aqueous spore suspension of Septoria tritici either prior to or after fungicide treatments. After inoculation the plants were kept in 100% relative humidity (one day in a dark dew chamber followed by two to three days in a lighted dew chamber at 20° C.) to permit spores to germinate and infect the leaf. The plants were then transferred to a greenhouse set at 20° C. for disease to develop. When disease symptoms were fully expressed on the l^st leaves of untreated plants, infection levels were assessed on a scale of 0 to 100 percent disease severity. Percent disease control was calculated using the ratio of disease severity on treated plants relative to untreated plants.

[3] abbreviates: 24 h, 1 Day Protectant, read-out: PUCCRT 1DP disease control rating.
Setting [4] is: 72 h, 3 Day Curative, read-out: PUCCRT 3DC disease control rating.
Where [5] appears, read: 24 h, 1 Day Protectant, 100 ppm (high volume), wheat, read-out: SEPTTR 1DP disease control rating.
[6] abbreviates: 72 h, 3 Day Curative, 100 ppm (high volume), wheat, read-out: SEPTTR 3DC disease control rating.
Where [7] appears, read: 24 h, 1 Day Protectant, wheat, read-out: SEPTTR 1DP disease control rating.
Setting [8] is: 72 h, 3 Day Curative, wheat, read-out: SEPTTR 3DC disease control rating.

In the case of `CCCC[C@H]1[C@H](C)OC(=O)[C@@H](N)CCC[C@@H]1OCCCC(F)(F)F.Cl`, the melting point (usually the temperature of the solid-liquid transition) lay in the range of 196 to 198 °C.
Take `COc1ccnc(C(=O)N[C@H]2CCC[C@H](Oc3ccccc3)[C@@H](CCC(C)C)[C@H](C)OC2=O)c1O` [Compound 8]: the melting point is 55 to 60 °C. The pest or weed control at 100 ppm in data set [1] (setting [3]) was over 70%. Moreover, the pest or weed control at 100 ppm in data set [1] (setting [4]) was over 70%. In addition, the pest or weed control at 100 ppm in data set [2] (setting [5]) is over 70%. The pest or weed control at 100 ppm in data set [2] (setting [6]) is over 70%.
`COc1ccnc(C(=O)N[C@H]2CCC[C@H](OCc3ccccc3)[C@@H](CCC(C)C)[C@H](C)OC2=O)c1OC(C)=O` [Compound 17] showed a melting point of 58 to 62 °C. Also, the pest or weed control at 121.5 g/ha in data set [1] (setting [3]) is over 70%. Further, the pest or weed control at 121.5 g/ha in data set [1] (setting [4]) was over 70%. The pest or weed control at 121.5 g/ha in data set [2] (setting [7]) is over 70%. Moreover, the pest or weed control at 121.5 g/ha in data set [2] (setting [8]) was over 70%.
`CCCO[C@H]1CCC[C@H](NC(=O)c2nccc(OC)c2O)C(=O)O[C@@H](C)[C@@H]1Cc1ccccc1` [Compound 49] showed a melting point of 59 to 64 °C. Further, the pest or weed control at 100 ppm in data set [1] (setting [3]) is over 70%. The pest or weed control at 100 ppm in data set [1] (setting [4]) was over 70%. The pest or weed control at 100 ppm in data set [2] (setting [5]) is over 70%. Further, the pest or weed control at 100 ppm in data set [2] (setting [6]) is over 70%.
The compound `CC(C)CC[C@H]1[C@H](C)OC(=O)[C@@H](NC(=O)OC(C)(C)C)CCC[C@@H]1OCc1ccccc1` [Compound 51] registered a melting point of 97 to 100 °C.
Compound `CCCO[C@H]1CCC[C@H](NC(=O)c2nccc(OC)c2O)C(=O)O[C@@H](C)[C@@H]1CCC(C)C` [Compound 31, 3-hydroxy-N-((3S,7S,8S,9S)-8-isopentyl-9-methyl-2-oxo-7-propoxyoxonan-3-yl)-4-methoxypicolinamide] registered a melting point of 45 to 49 °C. Further, in data set [1] (setting [3]), the pest or weed control at 100 ppm is over 70%. The pest or weed control at 100 ppm in data set [1] (setting [4]) was under 70%. Further, the pest or weed control at 100 ppm in data set [2] (24 h, read-out: SEPTTR 1DP disease control rating) was under 70%. Moreover, the pest or weed control at 100 ppm in data set [2] (72 h, read-out: SEPTTR 3DC disease control rating) was under 70%.
`CCCC[C@H]1[C@H](C)OC(=O)[C@@H](N)CCC[C@@H]1OCC1CC1.Cl` showed a melting point of 223 to 224 °C.
Consider `CCCC[C@H]1[C@H](C)OC(=O)[C@@H](NC(=O)c2nccc(OC)c2OC(C)=O)CCC[C@@H]1OCc1ccccc1` [Compound 63], for which the pest or weed control at 121.5 g/ha in data set [1] (setting [3]), in data set [1] (setting [4]), in data set [2] (setting [7]) and in data set [2] (setting [8]) was over 70% in each case.
In turn, `COc1ccnc(C(=O)N[C@H]2CCC[C@H](Oc3ccc(C)cc3)[C@@H](Cc3ccccc3)[C@H](C)OC2=O)c1O` [Compound 60] came in with a melting point of 68 to 71 °C. For the same compound, the pest or weed control at 100 ppm in data set [1] (setting [3]) was over 70%. Moreover, in data set [1] (setting [4]), the pest or weed control at 100 ppm is over 70%. In addition, in data set [2] (setting [5]), the pest or weed control at 100 ppm is over 70%. The pest or weed control at 100 ppm in data set [2] (setting [6]) was over 70%.
Take `COc1ccnc(C(=O)N[C@H]2CCC[C@H](OCC(C)C)[C@@H](Cc3ccccc3)[C@H](C)OC2=O)c1OC(C)=O` [Compound 72]: the pest or weed control at 121.5 g/ha in data set [1] (setting [3]), in data set [1] (setting [4]), in data set [2] (setting [7]) and in data set [2] (setting [8]) was over 70% in each case.
Turning to `COc1ccnc(C(=O)N[C@H]2CCC[C@H](OCc3ccccc3)[C@@H](CCC(C)C)[C@H](C)OC2=O)c1O` [Compound 58], the pest or weed control at 100 ppm in data set [1] (setting [3]) was over 70%; in data set [1] (setting [4]), over 70%; in data set [2] (setting [5]) it was under 70%; in data set [2] (setting [6]), under 70%.
On to `CCOCC(=O)OCOc1c(OC)ccnc1C(=O)N[C@H]1CCC[C@H](Oc2ccc(C)cc2)[C@@H](Cc2ccc(F)cc2)[C@H](C)OC1=O` [Compound 35], for which the pest or weed control at 121.5 g/ha is over 70% in data set [1] (setting [3]), under 70% in data set [1] (setting [4]), under 70% in data set [2] (setting [7]) and under 70% in data set [2] (setting [8]).
For the compound `COc1ccnc(C(=O)N[C@H]2CCC[C@H](Oc3ccc(C)cc3)[C@@H](Cc3ccc(F)cc3)[C@H](C)OC2=O)c1OC(C)=O` [Compound 21], the pest or weed control at 121.5 g/ha was over 70% in data set [1] (setting [3]), under 70% in data set [1] (setting [4]), over 70% in data set [2] (setting [7]) and under 70% in data set [2] (setting [8]).
In the case of `CCCC[C@H]1[C@H](C)OC(=O)[C@@H](NC(=O)c2nccc(OC)c2OCOC(C)=O)CCC[C@@H]1OC(=O)C(C)C` [Compound 50], the pest or weed control at 121.5 g/ha in data set [1] (setting [3]), in data set [1] (setting [4]), in data set [2] (setting [7]) and in data set [2] (setting [8]) was over 70% throughout.
For the compound `CCCC[C@H]1[C@H](C)OC(=O)[C@@H](NC(=O)c2nccc(OC)c2O)CCC[C@@H]1OCc1ccccc1` [Compound 47], the pest or weed control at 100 ppm was over 70% in data set [1] (setting [3]), over 70% in data set [1] (setting [4]), over 70% in data set [2] (setting [5]) and under 70% in data set [2] (setting [6]).
